From patent publication US20110053872A1, “Pharmaceutical Composition For Preventing And Treating Diabetic Nephropathy And The Preparation Method Thereof” (GUANGZHOU CONSUN MEDICINE R & D CO., LTD., priority 2009, published 2011)

Columns and labels:
[1] = system: DN model Wistar rats induced by streptozotocin; assay: STZ DN model rat: urinary production, total protein, microalbumin and creatinine; format: in vivo; details: for Microalbumin: urine
Procedure: (§1) The DN model Wistar rats were randomly divided into […] with 10 rats each group as indicated: normal glucose group; model group; CAL group (6, 2, 0.7 mg/kg); CAG group (9, 3, 1 mg/kg); CAL+CAG group (CAL:CAG, 2 mg/kg:1 mg/kg, 1 mg/kg:2 mg/kg); Radix Astragali group (5 g/kg); Aminoguanidine group (100 mg/kg).
(§2) The drugs or sodium chloride were intragastric adminstrated once each day for 14 weeks. After the administration, the total volume urine was collected by metabolic cage. The contents of urinary production, total protein, microalbumin and creatinine were determinated, and the biochemical indicators in blood was determinated using automatic biochemical analyzer. Then the kideny with fog Hahn fixation was reserved for histopathological examination.

[2] = system: DN model Wistar rats induced by streptozotocin; assay: STZ DN model rat: serum biochemical indicators; format: in vivo; design: AGEs (advanced glycosylation end products): unit not given here
Procedure: as §1, §2

[3] = system: DN model Wistar rats induced by streptozotocin; assay: STZ DN model rat: pathohistological indicators; format: in vivo; details: kidney
Procedure: as §1, §2

[4] = system: Rat mesangial cell line HBZY21; assay: High glucose-induced rat mesangial cell proliferation (MTT reduction assay); format: cell-based; details: 25 mM glucose, 24 h
Procedure: (§3) The mesangial cells in their exponential growth phase were cultured in 96-well plates at densities of 50000 cm^−2 in DMEM (5 mM glucose) at 37° C. in 5% CO2-95% air for 24 h. After pre-incubation in DMEM supplemented without fetal calf serum for 24 h, cells were then treated with various concentrations of glucose or AGEs for 24 h, 48 h, 72 h, 96 h, respectively.
According to the aboved method, after pre-incubation in DMEM supplemented without fetal calf serum for 24 h, cells were pretreated with 25 mM glucose, then were treated with various concentrations of reagents as indicated: normal glucose group (NG, 5.5 mM glucose); high glucose group (HG, 25 mM glucose); CAL group (CAL, 10, 100 nM); CAG group (CAG, 10, 100 nM); CAL+CAG group (CAL:CAG, 10 μg/ml:5 μg/ml, 5 μg/ml:10 μg/ml); Radix Astragali group (RA, 50 mg/ml aqueous extract). The plates were then incubated for 24 h. Proliferation was examined by MTT reduction assay. Experimental conditions were tested in sextuplicate (six wells of the 96-well plate per experimental condition).

[5] = system: Rat mesangial cell line HBZY21; assay: AGEs-induced rat mesangial cell proliferation (MTT reduction assay); format: cell-based; details: 0.25 mg/ml AGEs, 24 h
Procedure: as §3
Cells were pretreated with 0.25 mg/mlAGEs, then were treated with various concentrations of reagents as indicated: normal glucose group (NG, 5.5 mM glucose); AGEs group (AGEs, 0.25 mg/mlAGEs); CAL group (CAL, 10, 100 nM); CAG group (CAG, 10, 100 nM); CAL+CAG group (CAL:CAG, 10 μg/ml:5 μg/ml, 5 μg/ml:10 μg/ml); Radix Astragali group (RA, 50 mg/ml aqueous extract). The plates were then incubated for 24 h. Proliferation was examined by MTT reduction assay. Experimental conditions were tested in sextuplicate (six wells of the 96-well plate per experimental condition).

rat mesangial cells [6] = assay: Content of hydroxyproline in cell culture fluid of rat mesangial cells induced by high glucose; format: cell-based; details: high glucose (25 mM)
Procedure: (§4) The treatment was the same as section 2.1 in Experiment 1. The measurement of matrix proliferation was measured by determinating the content of hydroxyproline and the expression of TGFβ-1.
(§5) The coverslips were pre-placed in the 24-wells plates to stick the cells. The cells were treated with various concentrations of reagents as indicated in Experiment 1. After the cells covered with coverslip, the supernatant was used for the determination of hydroxyproline and the slides of cells were treated with stained with immunohistochemical and PAS staining. The cells cultured without TGFβ-1 antibody were taken as the negative control.

rat mesangial cells [7] = assay: ECM accrementition induced by high glucose (PAS staining, FIG. 1); format: cell-based; details: 25 mM glucose
Procedure: wherein A: normal glucose group; B: high glucose group (25 mM); C: Radix Astragali group (RA, 50 mg/ml aqueous extract); D: CAL group (100 nM); E: CAL group (10 nM); F: CAL group (1 nM); G: CAG group (100 nM); H: CAG group (10 nM); I: CAG group (1 nM); J: CAL:CAG group (10 μg/ml:5 μg/ml). K: CAL:CAG group ([…]:10 μg/ml).
as §4, §5

TGFβ-1 = TGFβ-1 expression induced by high glucose (immunohistochemical staining, FIG. 2); format: cell-based, rat; details: 25 mM glucose
Procedure: wherein A: normal glucose group; B: high glucose group (25 mM); C: negative control group; D: CAL group (100 nM); E: CAL group (10 nM); F: CAL group (1 nM); G: CAG group (100 nM); H: CAG group (10 nM); I: CAG group (1 nM); J: Radix Astragali group (RA, 50 mg/ml aqueous extract); K: CAL:CAG group (10 μg/ml:5 μg/ml); L: CAL:CAG group (5 μg/ml:10 μg/ml).
as §4, §5

[8] = 100 mg/kg intragastric once each day for 14 weeks
[9] = 1 mg/kg intragastric once each day for 14 weeks
[10] = 3 mg/kg intragastric once each day for 14 weeks
[11] = 9 mg/kg intragastric once each day for 14 weeks

In the case of `N=C(N)NN` [Aminoguanidine, reference compound], the Urinary production [1, 8] is reported as 36.2 ± 21.8 mL, the Urine creatinine [1, 8] is reported as 4.0 ± 2.3 mM and the Urine protein [1, 8] is reported as 43.2 ± 29.9 mg. For the same compound, the Microalbumin [1, 8] was 1.00 ± 0.27 mg, the “AGEs (advanced glycosylation end products)” value (“AGEs” below) [2, 8] was 283 ± 78 and the “BUN (Blood urea nitrogen)” value [2, 8] was 6.6 ± 0.8 mmol/L. The LDL [2, 8] was 2.01 ± 0.58 mmol/L, the “MDA (malonaldehyde)” value [2, 8] was 5.9 ± 1.7 nmol/mL and the “SOD (superoxide dismutase)” value [2, 8] was 516 ± 20 U/ml. The “Scr (serum creatinine)” value [2, 8] was 77.7 ± 20.3 µmol/L, the triglyceride [2, 8] was 3.35 ± 0.87 mmol/L and the “ECM score (PAS %)” value [3, 8] was 26.5 ± 4.3 %. The Patho-score [3, 8] was 2.1 ± 1.0 and the “TGFβ-1 (%)” value [3, 8] was 11.7 ± 5.7 %.
For `COc1ccc(-c2coc3cc(O[C@@H]4O[C@H](CO)[C@@H](O)[C@H](O)[C@H]4O)ccc3c2=O)cc1O` [CAG, 3′-hydroxy-4′-methoxyisoflavone-7-O-β-D-glucopyranoside], the “OD value (λ = 490 nm)” value ([4]; 10 nM) was 0.35 ± 0.04, the “OD value (λ = 490 nm)” value ([4]; 100 nM) was 0.33 ± 0.03 and the “OD value (λ = 490 nm)” value ([5]; 10 nM) was 0.34 ± 0.06. For the same compound, the “OD value (λ = 490 nm)” value ([5]; 100 nM) was 0.33 ± 0.04, the “Content of hydroxyproline in cell culture fluid” value (rat mesangial cells [6]; 10 nM) was 6.25 ± 1.20 µg/mL and the “Content of hydroxyproline in cell culture fluid” value (rat mesangial cells [6]; 100 nM) was 6.00 ± 1.53 µg/mL. The “ECM accrementition induced by high glucose” value (rat mesangial cells [7]) was “inhibited”, the “expression of TGFβ-1 induced by high glucose” value (TGFβ-1) was “inhibited” and the Urinary production [1, 9] was 58.9 ± 20.5 mL. It also gave a Urine creatinine [1, 9] of 1.3 ± 0.6 mM, a Urine protein [1, 9] of 67.1 ± 18.4 mg and a Urinary production [1, 10] of 42.3 ± 12.8 mL. For the same compound, the Urine creatinine [1, 10] was 2.7 ± 1.1 mM, the Urine protein [1, 10] was 55.0 ± 13.4 mg and the Urinary production [1, 11] was 33.9 ± 20.2 mL. The Urine creatinine [1, 11] was 4.2 ± 1.6 mM, the Urine protein [1, 11] was 44.2 ± 20.6 mg and the Microalbumin [1, 9] was 1.52 ± 0.56 mg. The Microalbumin [1, 10] was 0.90 ± 0.45 mg, the Microalbumin [1, 11] was 0.93 ± 0.22 mg and the “AGEs” value [2, 9] was 288 ± 44. The “BUN (Blood urea nitrogen)” value [2, 9] was 6.9 ± 0.9 mmol/L, the LDL [2, 9] was 1.94 ± 0.44 mmol/L and the “MDA (malonaldehyde)” value [2, 9] was 7.9 ± 1.6 nmol/mL. For the same compound, the “SOD (superoxide dismutase)” value [2, 9] was 490 ± 23 U/ml, the “Scr (serum creatinine)” value [2, 9] was 89.0 ± 21.1 µmol/L and the triglyceride [2, 9] was 3.20 ± 0.71 mmol/L. For the same compound, the “AGEs” value [2, 10] was 281 ± 46, the “BUN (Blood urea nitrogen)” value [2, 10] was 6.7 ± 0.8 mmol/L and the LDL [2, 10] was 1.60 ± 0.43 mmol/L. The “MDA (malonaldehyde)” value [2, 10] was 6.5 ± 1.4 nmol/mL, the “SOD (superoxide dismutase)” value [2, 10] was 502 ± 31 U/ml and the “Scr (serum creatinine)” value [2, 10] was 73.5 ± 22.5 µmol/L. For the same compound, the triglyceride [2, 10] was 2.66 ± 0.72 mmol/L, the “AGEs” value [2, 11] was 275 ± 68 and the “BUN (Blood urea nitrogen)” value [2, 11] was 5.9 ± 1.6 mmol/L. For the same compound, the LDL [2, 11] was 1.23 ± 0.26 mmol/L, the “MDA (malonaldehyde)” value [2, 11] was 6.5 ± 1.2 nmol/mL and the “SOD (superoxide dismutase)” value [2, 11] was 512 ± 19 U/ml. The “Scr (serum creatinine)” value [2, 11] was 74.2 ± 16.0 µmol/L, the triglyceride [2, 11] was 2.43 ± 0.70 mmol/L and the “ECM score (PAS %)” value [3, 9] was 32.5 ± 4.1%. The Patho-score [3, 9] was 2.8 ± 0.9, the “TGFβ-1 (%)” value [3, 9] was 20.0 ± 4.3 % and the “ECM score (PAS %)” value [3, 10] was 28.9 ± 5.4 %. The Patho-score [3, 10] was 1.9 ± 1.1, the “TGFβ-1 (%)” value [3, 10] was 16.2 ± 4.7 % and the “ECM score (PAS %)” value [3, 11] was 26.9 ± 4.5 %. The Patho-score [3, 11] was 1.7 ± 0.9 and the “TGFβ-1 (%)” value [3, 11] was 9.1 ± 2.2 %.
